Measurements reported in patent US20050282743A1, “Molecular interactions in cells” (Arbor Vita Corporation, priority 2001, published 2005).
Peptide text beside a SMILES is read from it. * marks the point of attachment. Biotin = O=C1N[C@H]2[C@H](CS[C@H]2CCCCC(=O)*)N1

Assays:
Assay in all cases: G' assay (10 uM PL peptide), results of TABLE 7 and TABLE 12
Type in all cases: binding
[1] = target: T1, PDZ protein (GST-PDZ fusion) (Homo sapiens, UniProt O75970)
T1 construct: made in house; host or cells: E. coli (DH5alpha, BL21 or JM109)
T1 sequence (O75970 whole entry, the tested form may be a part): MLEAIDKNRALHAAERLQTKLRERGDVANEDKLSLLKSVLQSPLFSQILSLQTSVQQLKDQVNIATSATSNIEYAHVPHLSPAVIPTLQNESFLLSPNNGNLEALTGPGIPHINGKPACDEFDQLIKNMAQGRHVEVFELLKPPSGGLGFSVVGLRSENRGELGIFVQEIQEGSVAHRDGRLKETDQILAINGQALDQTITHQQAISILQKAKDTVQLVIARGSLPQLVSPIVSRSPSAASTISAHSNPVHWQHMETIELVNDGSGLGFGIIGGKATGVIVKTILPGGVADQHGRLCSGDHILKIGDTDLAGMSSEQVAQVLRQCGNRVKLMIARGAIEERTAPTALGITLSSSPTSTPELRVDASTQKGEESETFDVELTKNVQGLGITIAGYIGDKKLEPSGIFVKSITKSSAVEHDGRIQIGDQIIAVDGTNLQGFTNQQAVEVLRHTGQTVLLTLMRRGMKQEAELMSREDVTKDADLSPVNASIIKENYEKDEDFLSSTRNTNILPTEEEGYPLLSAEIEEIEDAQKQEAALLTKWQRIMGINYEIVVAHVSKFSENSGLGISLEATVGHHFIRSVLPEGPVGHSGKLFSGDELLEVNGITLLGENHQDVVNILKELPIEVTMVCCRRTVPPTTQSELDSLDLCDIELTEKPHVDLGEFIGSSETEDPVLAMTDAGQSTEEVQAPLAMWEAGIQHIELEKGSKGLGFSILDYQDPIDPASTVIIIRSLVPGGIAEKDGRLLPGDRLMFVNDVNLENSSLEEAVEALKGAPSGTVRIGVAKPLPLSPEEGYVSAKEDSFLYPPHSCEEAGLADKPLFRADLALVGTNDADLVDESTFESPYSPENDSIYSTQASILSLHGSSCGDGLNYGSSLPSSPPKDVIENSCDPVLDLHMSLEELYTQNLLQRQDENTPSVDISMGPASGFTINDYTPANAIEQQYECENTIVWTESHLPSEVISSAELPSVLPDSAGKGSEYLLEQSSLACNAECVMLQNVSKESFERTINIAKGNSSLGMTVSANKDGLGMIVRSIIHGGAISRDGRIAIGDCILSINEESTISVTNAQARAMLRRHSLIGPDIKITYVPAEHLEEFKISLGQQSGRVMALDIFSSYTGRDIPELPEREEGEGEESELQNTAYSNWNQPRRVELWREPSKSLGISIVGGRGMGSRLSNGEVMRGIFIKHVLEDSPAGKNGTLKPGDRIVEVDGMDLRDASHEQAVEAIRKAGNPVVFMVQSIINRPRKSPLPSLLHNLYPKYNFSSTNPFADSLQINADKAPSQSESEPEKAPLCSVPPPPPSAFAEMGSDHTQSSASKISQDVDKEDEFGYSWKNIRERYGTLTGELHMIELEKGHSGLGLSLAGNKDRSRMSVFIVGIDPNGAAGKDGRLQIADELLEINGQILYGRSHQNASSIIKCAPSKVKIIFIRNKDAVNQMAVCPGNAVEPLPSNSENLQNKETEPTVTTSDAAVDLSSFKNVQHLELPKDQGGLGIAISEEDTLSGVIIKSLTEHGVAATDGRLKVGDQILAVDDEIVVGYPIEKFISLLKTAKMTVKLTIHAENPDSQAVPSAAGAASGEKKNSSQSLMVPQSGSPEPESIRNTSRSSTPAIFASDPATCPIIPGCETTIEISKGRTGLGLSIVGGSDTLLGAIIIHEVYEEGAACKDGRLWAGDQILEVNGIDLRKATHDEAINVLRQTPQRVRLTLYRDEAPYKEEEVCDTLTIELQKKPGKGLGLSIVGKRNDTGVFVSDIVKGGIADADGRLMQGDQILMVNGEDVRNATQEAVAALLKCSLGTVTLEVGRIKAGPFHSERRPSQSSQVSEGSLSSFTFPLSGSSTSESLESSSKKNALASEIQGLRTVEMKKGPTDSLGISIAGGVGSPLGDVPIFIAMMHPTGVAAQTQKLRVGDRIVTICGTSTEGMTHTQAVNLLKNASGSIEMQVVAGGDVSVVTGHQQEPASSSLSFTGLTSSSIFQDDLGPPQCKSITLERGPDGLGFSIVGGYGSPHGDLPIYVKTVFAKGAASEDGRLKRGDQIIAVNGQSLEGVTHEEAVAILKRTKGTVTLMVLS
Procedure, shortened: (§1)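 Same steps as the G-zero format, apart from a peptide concentration of 10 uM in place of 20 uM in step 2. Amino-terminally biotinylated PL peptides bind GST-PDZ fusions, and retained peptide is quantified by 450 nm absorbance.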

[2] = target: T2, PDZ protein (GST-PDZ fusion) (Homo sapiens, UniProt Q5TCQ9)
T2 construct: made in house; host or cells: E. coli (DH5alpha, BL21 or JM109)
T2 sequence (Q5TCQ9 1-1481): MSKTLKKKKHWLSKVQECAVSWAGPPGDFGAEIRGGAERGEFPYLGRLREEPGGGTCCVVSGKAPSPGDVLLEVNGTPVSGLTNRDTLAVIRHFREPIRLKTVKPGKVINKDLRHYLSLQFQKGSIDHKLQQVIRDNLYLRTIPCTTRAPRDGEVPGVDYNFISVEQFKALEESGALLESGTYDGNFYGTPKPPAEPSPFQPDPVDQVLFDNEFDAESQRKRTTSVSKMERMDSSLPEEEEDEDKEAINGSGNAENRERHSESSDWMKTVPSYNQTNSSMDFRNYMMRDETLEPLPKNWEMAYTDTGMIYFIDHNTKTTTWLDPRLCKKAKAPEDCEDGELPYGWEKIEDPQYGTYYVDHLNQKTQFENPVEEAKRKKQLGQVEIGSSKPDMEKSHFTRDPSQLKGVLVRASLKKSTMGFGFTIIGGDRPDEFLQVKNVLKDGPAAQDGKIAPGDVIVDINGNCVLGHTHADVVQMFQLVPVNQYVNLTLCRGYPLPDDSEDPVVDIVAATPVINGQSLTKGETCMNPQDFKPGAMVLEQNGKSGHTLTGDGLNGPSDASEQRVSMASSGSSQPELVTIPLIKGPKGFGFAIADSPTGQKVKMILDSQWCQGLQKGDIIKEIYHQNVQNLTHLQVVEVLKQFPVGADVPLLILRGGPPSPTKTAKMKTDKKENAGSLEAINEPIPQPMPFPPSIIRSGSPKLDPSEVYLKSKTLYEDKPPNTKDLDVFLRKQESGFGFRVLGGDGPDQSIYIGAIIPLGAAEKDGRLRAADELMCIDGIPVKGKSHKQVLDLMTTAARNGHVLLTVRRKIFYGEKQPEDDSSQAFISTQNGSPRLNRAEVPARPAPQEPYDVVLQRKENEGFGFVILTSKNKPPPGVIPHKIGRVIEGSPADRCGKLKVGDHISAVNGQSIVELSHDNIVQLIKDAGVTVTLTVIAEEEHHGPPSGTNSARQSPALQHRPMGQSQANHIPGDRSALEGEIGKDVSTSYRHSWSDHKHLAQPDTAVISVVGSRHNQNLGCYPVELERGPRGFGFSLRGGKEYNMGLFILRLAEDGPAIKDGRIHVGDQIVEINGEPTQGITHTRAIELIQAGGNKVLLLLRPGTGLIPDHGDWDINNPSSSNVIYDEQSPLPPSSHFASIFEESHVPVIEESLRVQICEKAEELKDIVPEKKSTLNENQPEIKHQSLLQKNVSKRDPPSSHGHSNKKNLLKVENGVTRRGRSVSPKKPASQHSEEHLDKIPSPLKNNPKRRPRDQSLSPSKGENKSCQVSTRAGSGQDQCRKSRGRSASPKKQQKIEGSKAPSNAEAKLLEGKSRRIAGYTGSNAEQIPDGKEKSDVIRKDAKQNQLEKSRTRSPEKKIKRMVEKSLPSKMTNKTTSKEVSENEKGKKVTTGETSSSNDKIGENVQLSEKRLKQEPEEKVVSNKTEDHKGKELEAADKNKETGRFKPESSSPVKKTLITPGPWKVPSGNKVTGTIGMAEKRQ
Procedure, shortened: as §1

[3] = target: T3, PDZ protein (GST-PDZ fusion) (Homo sapiens, UniProt Q6P0Q8)
T3 construct: made in house; host or cells: E. coli (DH5alpha, BL21 or JM109)
T3 sequence (Q6P0Q8 whole entry, the tested form may be a part): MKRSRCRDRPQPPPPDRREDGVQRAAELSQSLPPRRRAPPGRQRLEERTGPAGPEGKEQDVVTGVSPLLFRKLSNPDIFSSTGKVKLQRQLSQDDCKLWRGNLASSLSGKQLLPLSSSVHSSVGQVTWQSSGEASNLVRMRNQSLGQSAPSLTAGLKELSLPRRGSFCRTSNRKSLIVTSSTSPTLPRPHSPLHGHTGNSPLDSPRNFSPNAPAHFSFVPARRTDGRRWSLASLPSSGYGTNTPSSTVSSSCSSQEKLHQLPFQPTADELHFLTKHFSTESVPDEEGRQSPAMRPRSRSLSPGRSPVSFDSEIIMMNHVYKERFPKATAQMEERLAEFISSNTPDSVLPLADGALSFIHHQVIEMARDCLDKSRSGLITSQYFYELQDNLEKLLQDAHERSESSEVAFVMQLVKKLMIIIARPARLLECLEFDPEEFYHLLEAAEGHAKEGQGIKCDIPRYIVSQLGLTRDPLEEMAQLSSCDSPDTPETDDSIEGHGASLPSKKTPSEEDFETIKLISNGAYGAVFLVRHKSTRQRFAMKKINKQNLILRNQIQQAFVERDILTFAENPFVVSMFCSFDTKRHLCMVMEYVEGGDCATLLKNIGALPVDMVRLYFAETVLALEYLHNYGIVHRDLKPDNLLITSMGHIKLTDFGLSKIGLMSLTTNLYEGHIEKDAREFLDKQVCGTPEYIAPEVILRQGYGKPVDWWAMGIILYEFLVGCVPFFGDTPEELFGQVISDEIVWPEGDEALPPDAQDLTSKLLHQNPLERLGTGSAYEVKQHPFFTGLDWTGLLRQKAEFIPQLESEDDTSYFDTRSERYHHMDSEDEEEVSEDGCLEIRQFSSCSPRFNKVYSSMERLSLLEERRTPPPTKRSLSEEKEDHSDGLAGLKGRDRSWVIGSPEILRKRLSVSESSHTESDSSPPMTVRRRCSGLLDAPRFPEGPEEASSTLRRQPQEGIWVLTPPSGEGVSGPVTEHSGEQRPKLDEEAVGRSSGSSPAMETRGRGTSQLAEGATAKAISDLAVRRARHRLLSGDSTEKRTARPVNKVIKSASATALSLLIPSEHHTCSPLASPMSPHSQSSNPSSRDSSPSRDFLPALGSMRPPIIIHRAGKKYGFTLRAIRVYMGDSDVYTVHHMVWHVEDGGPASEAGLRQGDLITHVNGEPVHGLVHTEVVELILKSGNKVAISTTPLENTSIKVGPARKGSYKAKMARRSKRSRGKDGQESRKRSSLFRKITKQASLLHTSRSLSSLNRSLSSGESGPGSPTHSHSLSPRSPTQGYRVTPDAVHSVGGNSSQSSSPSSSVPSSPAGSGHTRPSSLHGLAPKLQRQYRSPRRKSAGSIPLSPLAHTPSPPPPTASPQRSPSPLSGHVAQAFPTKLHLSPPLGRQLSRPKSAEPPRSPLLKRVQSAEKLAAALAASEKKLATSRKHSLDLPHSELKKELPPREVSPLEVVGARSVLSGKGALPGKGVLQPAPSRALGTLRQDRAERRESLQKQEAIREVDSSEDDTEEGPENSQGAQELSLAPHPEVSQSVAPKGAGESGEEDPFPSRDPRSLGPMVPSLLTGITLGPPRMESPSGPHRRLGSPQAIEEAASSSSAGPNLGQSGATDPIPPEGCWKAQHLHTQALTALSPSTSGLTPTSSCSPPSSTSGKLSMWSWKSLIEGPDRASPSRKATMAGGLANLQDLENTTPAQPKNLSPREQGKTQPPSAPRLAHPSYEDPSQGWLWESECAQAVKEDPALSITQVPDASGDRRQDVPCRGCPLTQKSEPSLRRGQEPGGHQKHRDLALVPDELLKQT
Procedure, shortened: as §1

[4] = tested on: PDZ protein (GST-PDZ fusion)
Procedure, shortened: as §1

Row | Compound | Classification ([1]; PDZ MUPP-1, PDZ Domain 10) | Classification ([1]; PDZ MUPP-1, PDZ Domain 13) | Classification ([2]; PDZ KIAA1634, PDZ Domain 1) | Classification ([2]; PDZ KIAA1634, PDZ Domain 2) | Classification ([2]; PDZ KIAA1634, PDZ Domain 5) | Classification ([3]; PDZ KIAA0807(S), PDZ Domain 1) | Classification ([4]; PDZ BAI-1, PDZ Domain 2) | Classification ([4]; PDZ BAI-1, PDZ Domain 3) | Classification ([4]; PDZ BAI-1, PDZ Domain 4) | Classification ([4]; PDZ BAI-1, PDZ Domain 5) | Classification ([3]; PDZ KIAA807) | Classification ([3]; PDZ KIAA807 (domain not given)) | Classification ([4]; PDZ FLJ 00011, PDZ Domain 1) | Classification ([4]; PDZ BAI-1, PDZ Domain 6) | Classification ([4]; PDZ SHANK, PDZ Domain 1)
1 | CC(C)C[C@H](NC(=O)[C@H](CCCNC(=N)N)NC(=O)CNC(=O)CNC(=O)[C@H](CCCNC(=N)N)NC(=O)[C@H](C)NC(=O)[C@@H]1CCCN1C(=O)[C@H](CCCNC(=N)N)NC(=O)CNC(=O)CNC(=O)[C@@H](NC(=O)[C@H](C)NC(=O)CCCC[C@@H]1SC[C@@H]2NC(=O)N[C@@H]21)C(C)C)C(=O)N[C@@H](CCC(N)=O)C(=O)NCC(=O)N[C@@H](CCCNC(=N)N)C(=O)N[C@@H](CCCNC(=N)N)C(=O)N[C@@H](CCC(N)=O)C(=O)N[C@H](C(=O)N[C@@H](CCC(N)=O)C(=O)N[C@H](C(=O)O)C(C)C)[C@@H](C)O [HPV E6 58 (modified)] (Biotin-AVGGRPARGGRLQGRRQTQV-OH; C-terminus assumed) | 3 (A450 nm 2-3) | 1 (A450 nm 0-1) | 5 (A450 nm of 4 more than 2× repeated) | 1 (A450 nm 0-1) | 1 (A450 nm 0-1) | 5 (A450 nm of 4 more than 2× repeated) | 5 (A450 nm of 4 more than 2× repeated) | 2 (A450 nm 1-2) | 2 (A450 nm 1-2) | 2 (A450 nm 1-2) |  |  |  |  | 
2 | CC[C@H](C)[C@H](NC(=O)[C@H](CC(=O)O)NC(=O)[C@H](CCC(=O)O)NC(=O)[C@H](CCCNC(=N)N)NC(=O)[C@@H](NC(=O)CCCC[C@@H]1SC[C@@H]2NC(=O)N[C@@H]21)[C@@H](C)O)C(=O)N[C@@H](Cc1ccc(O)cc1)C(=O)N[C@H](C(=O)N[C@@H](CC(N)=O)C(=O)N[C@@H](Cc1ccc(O)cc1)C(=O)N1CCC[C@H]1C(=O)N[C@H](C(=O)N[C@@H](Cc1ccccc1)C(=O)N[C@@H](CO)C(=O)N[C@@H](CCCNC(=N)N)C(=O)N[C@@H](CCCNC(=N)N)C(=O)N1CCC[C@H]1C(=O)N[C@@H](CCCCN)C(=O)N[C@H](C(=O)N[C@@H](CCCNC(=N)N)C(=O)N[C@H](C(=O)O)C(C)C)[C@@H](C)O)[C@@H](C)O)C(C)C [DNAM-1] (Biotin-TREDIYVNYPTFSRRPKTRV-OH; C-terminus assumed) | 4 (A450 nm 3-4) |  | 5 (A450 nm of 4 more than 2× repeated) |  |  | 3 (A450 nm 2-3) | 5 (A450 nm of 4 more than 2× repeated) |  |  |  | 3 (A450 nm 2-3) |  |  |  | 
3 | APC—adenomatous polyposis coli protein (ESSGTQSPKRHSGSYLVTSV) | 1 (A450 nm 0-1) |  | 1 (A450 nm 0-1) | 1 (A450 nm 0-1) |  | 1 (A450 nm 0-1) | 1 (A450 nm 0-1) |  |  | 1 (A450 nm 0-1) |  | 1 (A450 nm 0-1) | 1 (A450 nm 0-1) |  | 
4 | CC(C)C[C@H](NC(=O)[C@H](C)NC(=O)[C@@H](NC(=O)[C@H](CCC(=O)O)NC(=O)[C@H](CCCNC(=N)N)NC(=O)[C@H](CCCNC(=N)N)NC(=O)CNC(=O)[C@H](CCC(N)=O)NC(=O)[C@H](CC(C)C)NC(=O)[C@H](CCCNC(=N)N)NC(=O)CNC(=O)CNC(=O)[C@H](CCCNC(=N)N)NC(=O)[C@H](C)NC(=O)[C@H](CO)NC(=O)[C@H](CCCNC(=N)N)NC(=O)CNC(=O)CNC(=O)[C@H](C)NC(=O)[C@H](C)NC(=O)CCCC[C@@H]1SC[C@@H]2NC(=O)N[C@@H]21)[C@@H](C)O)C(=O)O [HPV E6 33 (modified)] (Biotin-AAGGRSARGGRLQGRRETAL-OH; C-terminus assumed) |  | 2 (A450 nm 1-2) | 5 (A450 nm of 4 more than 2× repeated) |  |  | 5 (A450 nm of 4 more than 2× repeated) | 5 (A450 nm of 4 more than 2× repeated) |  |  | 1 (A450 nm 0-1) |  |  | 1 (A450 nm 0-1) | 1 (A450 nm 0-1) | 4 (A450 nm 3-4)
